Assay results as given in ChEMBL document CHEMBL1140040, “Synthesis and cytotoxic activity of some novel polycyclic gamma-butyrolactones” (Bioorg Med Chem Lett, 2008).

Tests used:
HOP-62 [1] = assay: Cytotoxicity against human HOP62 cells assessed as age growth inhibition at 10 uM after 48 hrs by sulforhodamine B assay; assay type: functional; settings: HOP-62, 48 h, read-out: GI
IGROV-1 [2] = assay: Antiproliferative activity against human IGROV1 cells after 48 hrs by sulforhodamine B assay; assay type: functional, cell-based; settings: IGROV-1, 48 h
SF-295 [3] = assay: Cytotoxicity against human SF295 cells assessed as age growth inhibition at 10 uM after 48 hrs by sulforhodamine B assay; assay type: functional; settings: SF-295, 48 h, read-out: GI
DU-145 [4] = assay: Cytotoxicity against human DU145 cells assessed as age growth inhibition at 100 uM after 48 hrs by sulforhodamine B assay; assay type: functional; settings: DU-145, 48 h, read-out: GI
SF-295 [5] = assay: Cytotoxicity against human SF295 cells assessed as age growth inhibition at 50 uM after 48 hrs by sulforhodamine B assay; assay type: functional; settings: SF-295, 48 h, read-out: GI
A549 [6] = assay: Cytotoxicity against human A549 cells assessed as age growth inhibition at 50 uM after 48 hrs by sulforhodamine B assay; assay type: functional; settings: A549, 48 h, read-out: GI
HCT-15 [7] = assay: Cytotoxicity against human HCT15 cells assessed as age growth inhibition at 10 uM after 48 hrs by sulforhodamine B assay; assay type: functional; settings: HCT-15, 48 h, read-out: GI
SF-295 [8] = assay: Antiproliferative activity against human SF295 cells after 48 hrs by sulforhodamine B assay; assay type: functional, cell-based; settings: SF-295, 48 h
IGROV-1 [9] = assay: Cytotoxicity against human IGROV1 cells assessed as age growth inhibition at 10 uM after 48 hrs by sulforhodamine B assay; assay type: functional; settings: IGROV-1, 48 h, read-out: GI
DU-145 [10] = assay: Cytotoxicity against human DU145 cells assessed as age growth inhibition at 10 uM after 48 hrs by sulforhodamine B assay; assay type: functional; settings: DU-145, 48 h, read-out: GI
IGROV-1 [11] = assay: Cytotoxicity against human IGROV1 cells assessed as age growth inhibition at 50 uM after 48 hrs by sulforhodamine B assay; assay type: functional; settings: IGROV-1, 48 h, read-out: GI
SK-OV-3 [12] = assay: Cytotoxicity against human SKOV3 cells assessed as age growth inhibition at 50 uM after 48 hrs by sulforhodamine B assay; assay type: functional; settings: SK-OV-3, 48 h, read-out: GI
SF-295 [13] = assay: Cytotoxicity against human SF295 cells assessed as age growth inhibition at 100 uM after 48 hrs by sulforhodamine B assay; assay type: functional; settings: SF-295, 48 h, read-out: GI
HOP-62 [14] = assay: Antiproliferative activity against human HOP62 cells after 48 hrs by sulforhodamine B assay; assay type: functional, cell-based; settings: HOP-62, 48 h
SK-OV-3 [15] = assay: Antiproliferative activity against human SKOV3 cells after 48 hrs by sulforhodamine B assay; assay type: functional, cell-based; settings: SK-OV-3, 48 h
A549 [16] = assay: Antiproliferative activity against human A549 cells after 48 hrs by sulforhodamine B assay; assay type: functional, cell-based; settings: A549, 48 h
COLO 205 [17] = assay: Cytotoxicity against human COLO205 cells assessed as age growth inhibition at 10 uM after 48 hrs by sulforhodamine B assay; assay type: functional; settings: COLO 205, 48 h, read-out: GI
HEp-2 [18] = assay: Cytotoxicity against human HEP2 cells assessed as age growth inhibition at 100 uM after 48 hrs by sulforhodamine B assay; assay type: functional; settings: HEp-2, 48 h, read-out: GI
HOP-62 [19] = assay: Cytotoxicity against human HOP62 cells assessed as age growth inhibition at 50 uM after 48 hrs by sulforhodamine B assay; assay type: functional; settings: HOP-62, 48 h, read-out: GI
DU-145 [20] = assay: Cytotoxicity against human DU145 cells assessed as age growth inhibition at 50 uM after 48 hrs by sulforhodamine B assay; assay type: functional; settings: DU-145, 48 h, read-out: GI
HCT-15 [21] = assay: Antiproliferative activity against human HCT15 cells after 48 hrs by sulforhodamine B assay; assay type: functional, cell-based; settings: HCT-15, 48 h
HCT-15 [22] = assay: Cytotoxicity against human HCT15 cells assessed as age growth inhibition at 100 uM after 48 hrs by sulforhodamine B assay; assay type: functional; settings: HCT-15, 48 h, read-out: GI
COLO 205 [23] = assay: Cytotoxicity against human COLO205 cells assessed as age growth inhibition at 100 uM after 48 hrs by sulforhodamine B assay; assay type: functional; settings: COLO 205, 48 h, read-out: GI
HOP-62 [24] = assay: Cytotoxicity against human HOP62 cells assessed as age growth inhibition at 100 uM after 48 hrs by sulforhodamine B assay; assay type: functional; settings: HOP-62, 48 h, read-out: GI
SK-OV-3 [25] = assay: Cytotoxicity against human SKOV3 cells assessed as age growth inhibition at 10 uM after 48 hrs by sulforhodamine B assay; assay type: functional; settings: SK-OV-3, 48 h, read-out: GI
HCT-15 [26] = assay: Cytotoxicity against human HCT15 cells assessed as age growth inhibition at 50 uM after 48 hrs by sulforhodamine B assay; assay type: functional; settings: HCT-15, 48 h, read-out: GI
HEp-2 [27] = assay: Cytotoxicity against human HEP2 cells assessed as age growth inhibition at 50 uM after 48 hrs by sulforhodamine B assay; assay type: functional; settings: HEp-2, 48 h, read-out: GI
COLO 205 [28] = assay: Antiproliferative activity against human COLO205 cells after 48 hrs by sulforhodamine B assay; assay type: functional, cell-based; settings: COLO 205, 48 h
A549 [29] = assay: Cytotoxicity against human A549 cells assessed as age growth inhibition at 10 uM after 48 hrs by sulforhodamine B assay; assay type: functional; settings: A549, 48 h, read-out: GI
SK-OV-3 [30] = assay: Cytotoxicity against human SKOV3 cells assessed as age growth inhibition at 100 uM after 48 hrs by sulforhodamine B assay; assay type: functional; settings: SK-OV-3, 48 h, read-out: GI
COLO 205 [31] = assay: Cytotoxicity against human COLO205 cells assessed as age growth inhibition at 50 uM after 48 hrs by sulforhodamine B assay; assay type: functional; settings: COLO 205, 48 h, read-out: GI
HEp-2 [32] = assay: Cytotoxicity against human HEP2 cells assessed as age growth inhibition at 10 uM after 48 hrs by sulforhodamine B assay; assay type: functional; settings: HEp-2, 48 h, read-out: GI
A549 [33] = assay: Cytotoxicity against human A549 cells assessed as age growth inhibition at 100 uM after 48 hrs by sulforhodamine B assay; assay type: functional; settings: A549, 48 h, read-out: GI
HEp-2 [34] = assay: Antiproliferative activity against human HEP2 cells after 48 hrs by sulforhodamine B assay; assay type: functional, cell-based; settings: HEp-2, 48 h
DU-145 [35] = assay: Antiproliferative activity against human DU145 cells after 48 hrs by sulforhodamine B assay; assay type: functional, cell-based; settings: DU-145, 48 h
IGROV-1 [36] = assay: Cytotoxicity against human IGROV1 cells assessed as age growth inhibition at 100 uM after 48 hrs by sulforhodamine B assay; assay type: functional; settings: IGROV-1, 48 h, read-out: GI

Compound	inhibition of growth at 10 µM (HOP-62 [1])	IC50 (IGROV-1 [2])	inhibition of growth at 10 µM (SF-295 [3])	inhibition of growth at 100 µM (DU-145 [4])	inhibition of growth at 50 µM (SF-295 [5])	inhibition of growth at 50 µM (A549 [6])	inhibition of growth at 10 µM (HCT-15 [7])	IC50 (SF-295 [8])	inhibition of growth at 10 µM (IGROV-1 [9])	inhibition of growth at 10 µM (DU-145 [10])	inhibition of growth at 50 µM (IGROV-1 [11])	inhibition of growth at 50 µM (SK-OV-3 [12])	inhibition of growth at 100 µM (SF-295 [13])	IC50 (HOP-62 [14])	IC50 (SK-OV-3 [15])	IC50 (A549 [16])	inhibition of growth at 10 µM (COLO 205 [17])	inhibition of growth at 100 µM (HEp-2 [18])	inhibition of growth at 50 µM (HOP-62 [19])	inhibition of growth at 50 µM (DU-145 [20])	further results
Cc1ccc([C@H]2OC(=O)[C@@H]3C=C4C(C)(C)CCC[C@]4(C)[C@H]23)cc1	2%	> 100 µM	19%	35%	20%	29%	11%	> 100 µM	0%	6%	29%	29%	21%	> 100 µM	> 100 µM	> 100 µM	10%	27%	13%	10%	IC50 (HCT-15 [21]): 78 µM; inhibition of growth at 100 µM (HCT-15 [22]): 55%; inhibition of growth at 100 µM (COLO 205 [23]): 34%; inhibition of growth at 100 µM (HOP-62 [24]): 21%; inhibition of growth at 10 µM (SK-OV-3 [25]): 19%; inhibition of growth at 50 µM (HCT-15 [26]): 44%; inhibition of growth at 50 µM (HEp-2 [27]): 25%; IC50 (COLO 205 [28]): > 100 µM; inhibition of growth at 10 µM (A549 [29]): 13%; inhibition of growth at 100 µM (SK-OV-3 [30]): 30%; inhibition of growth at 50 µM (COLO 205 [31]): 22%; inhibition of growth at 10 µM (HEp-2 [32]): 9%; inhibition of growth at 100 µM (A549 [33]): 42%; IC50 (HEp-2 [34]): > 100 µM; IC50 (DU-145 [35]): > 100 µM; inhibition of growth at 100 µM (IGROV-1 [36]): 40%
CC1(C)CCC[C@@]2(C)C1=C[C@H]1C(=O)O[C@H](c3ccccc3)[C@H]12	16%	83.7 µM	15%	56%	18%	29%	9%	> 100 µM	0%	15%	22%	30%	22%	> 100 µM	86.5 µM	97.6 µM	14%	37%	21%	32%	IC50 (HCT-15 [21]): 75.3 µM; inhibition of growth at 100 µM (HCT-15 [22]): 56%; inhibition of growth at 100 µM (COLO 205 [23]): 79%; inhibition of growth at 100 µM (HOP-62 [24]): 28%; inhibition of growth at 10 µM (SK-OV-3 [25]): 20%; inhibition of growth at 50 µM (HCT-15 [26]): 46%; inhibition of growth at 50 µM (HEp-2 [27]): 18%; IC50 (COLO 205 [28]): 63.6 µM; inhibition of growth at 10 µM (A549 [29]): 11%; inhibition of growth at 100 µM (SK-OV-3 [30]): 57%; inhibition of growth at 50 µM (COLO 205 [31]): 34%; inhibition of growth at 10 µM (HEp-2 [32]): 6%; inhibition of growth at 100 µM (A549 [33]): 51%; IC50 (HEp-2 [34]): > 100 µM; IC50 (DU-145 [35]): 87.6 µM; inhibition of growth at 100 µM (IGROV-1 [36]): 63%
